# Measured values as given in ChEMBL document CHEMBL1131434, “Identification of an opioid kappa receptor subtype-selective N-substituent for (+)-(3R,4R)-dimethyl-4-(3-hydroxyphenyl)piperidine” (J Med Chem, 1998).
# How the values were obtained:
# [1] = target: Kappa-type opioid receptor (Cavia porcellus) (UniProt P41144); assay: Inhibition against Opioid receptor kappa 1 using selective ligand [3H]U-69593; parameters: concentration or dose not given beside the values; conditions: concentration not given here
# Mu-type opioid receptor [2] = target: T1, Mu-type opioid receptor (Cavia porcellus, UniProt P97266); assay: Binding affinity determined on Opioid receptor mu 1 in Guinea pig brain membranes using radioligand [3H]DAMGO.; assay type: cell membranes, Membrane
# [3] = target: T2, Kappa-type opioid receptor (Cavia porcellus, UniProt P41144); assay: Binding affinity determined on Opioid receptor kappa 1 in Guinea pig brain membranes using radioligand [3H]U-69593; assay type: cell membranes, Membrane
# Mu-type opioid receptor [4] = target: T1, Mu-type opioid receptor; assay: Inhibition of [35S]GTP-gamma-S, binding from Opioid receptor mu 1 in Guinea pig Caudate stimulated by DAMGO; assay type: functional
# [5] = target: T2, Kappa-type opioid receptor; assay: Inhibition of [35S]GTP-gamma-S, binding from Opioid receptor kappa 1 in Guinea pig Caudate stimulated by U69,593; assay type: functional
# Mu-type opioid receptor [6] = target: T1, Mu-type opioid receptor; assay: Binding affinity determined on Opioid receptor mu 1 in Guinea pig brain membranes using radioligand [3H]DAMGO; assay type: cell membranes, Membrane
# Sequence of Kappa-type opioid receptor (Cavia porcellus) (P41144 whole entry): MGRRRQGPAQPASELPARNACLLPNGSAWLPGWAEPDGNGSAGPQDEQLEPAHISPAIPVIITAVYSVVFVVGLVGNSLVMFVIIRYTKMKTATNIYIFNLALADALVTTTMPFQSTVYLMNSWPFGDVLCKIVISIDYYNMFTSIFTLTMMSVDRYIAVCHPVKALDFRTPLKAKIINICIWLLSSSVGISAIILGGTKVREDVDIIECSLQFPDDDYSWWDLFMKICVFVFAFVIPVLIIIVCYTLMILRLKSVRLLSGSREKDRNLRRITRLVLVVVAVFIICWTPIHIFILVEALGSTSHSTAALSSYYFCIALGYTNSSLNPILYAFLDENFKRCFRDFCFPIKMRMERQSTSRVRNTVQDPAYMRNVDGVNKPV
# T2 sequence (P41144 whole entry): as above
# T1 sequence (P97266 whole entry): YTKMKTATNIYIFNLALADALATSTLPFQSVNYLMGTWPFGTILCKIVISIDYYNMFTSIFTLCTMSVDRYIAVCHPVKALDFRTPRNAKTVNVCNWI
structure (smiles),measurement,setting,value
CC(C)C(CN1CCC(C)(c2cccc(O)c2)C(C)C1)NC(=O)CCc1ccc(F)cc1 (configuration not stated),inhibition,[1],26%
CC(C)[C@@H](CN1CC[C@@](C)(c2cccc(O)c2)[C@@H](C)C1)NC(=O)CCc1ccccc1,inhibition,[1],28%
CC(C)C(CN1CCC(C)(c2cccc(O)c2)C(C)C1)NC(=O)CCc1ccccc1O (configuration not stated),inhibition,[1],25%
CC(C)C(CN1CCC(C)(c2cccc(O)c2)C(C)C1)NC(=O)/C=C/c1ccc(O)cc1 (configuration not stated),inhibition,[1],15%
CCC(C)[C@@H](CN1CCC(C)(c2cccc(O)c2)C(C)C1)NC(=O)CCc1ccc(O)cc1 (some centres not stated),Ki,Mu-type opioid receptor [2],421 nM
same,Ki,[3],8.84 nM
CC(C)C(CN1CCC(C)(c2cccc(O)c2)C(C)C1)NC(=O)CCc1cccc(O)c1 (configuration not stated),inhibition,[1],20%
CC(C)[C@@H](CN1CC[C@@](C)(c2cccc(O)c2)[C@@H](C)C1)NC(=O)CCc1ccc(O)cc1,Ki,Mu-type opioid receptor [4],7.25 nM
same,inhibition,[1],71%
same,Ki,[3],6.91 nM
same,Ki,[5],4.7 nM
same,Ki,Mu-type opioid receptor [6],393 nM
COc1ccc(CCC(=O)NC(CN2CCC(C)(c3cccc(O)c3)C(C)C2)C(C)C)cc1 (configuration not stated),inhibition,[1],16%
C[S+](C)[O-],inhibition,[1],4%
CC1CN(C[C@@H](NC(=O)CCc2ccc(O)cc2)C2CCCCC2)CCC1(C)c1cccc(O)c1 (some centres not stated),Ki,Mu-type opioid receptor [2],234 nM
same,Ki,[3],83.1 nM
CC1CN(CCNC(=O)CCc2ccc(O)cc2)CCC1(C)c1cccc(O)c1 (configuration not stated),inhibition,[1],11%
COc1cc(CCC(=O)NC(CN2CCC(C)(c3cccc(O)c3)C(C)C2)C(C)C)ccc1O (configuration not stated),inhibition,[1],42%
CC(C)C(CN1CCC(C)(c2cccc(O)c2)C(C)C1)NC(=O)Cc1ccc(O)cc1 (configuration not stated),inhibition,[1],6%
C[C@@H]1CN(C/C=C/c2ccccc2)CC[C@]1(C)c1cccc(O)c1,Ki,Mu-type opioid receptor [4],0.039 nM
same,Ki,[3],122 nM
same,Ki,[5],1.04 nM
same,Ki,Mu-type opioid receptor [6],0.74 nM
CC(C)[C@H](CN1CC[C@@](C)(c2cccc(O)c2)[C@@H](C)C1)NC(=O)CCc1ccc(O)cc1,inhibition,[1],11%
Oc1ccc2c3c1O[C@H]1c4[nH]c5c(c4C[C@@]4(O)[C@@H](C2)N(CC2CC2)CC[C@]314)C[C@@]1(O)[C@H]2Cc3ccc(O)c4c3[C@@]1(CCN2CC1CC1)[C@H]5O4 [NORBINALTORPHIMINE],Ki,Mu-type opioid receptor [4],16.7 nM
CC(C)C[C@@H](CN1CCC(C)(c2cccc(O)c2)C(C)C1)NC(=O)CCc1ccc(O)cc1 (some centres not stated),Ki,Mu-type opioid receptor [6],398 nM
CC(CN1CCC(C)(c2cccc(O)c2)C(C)C1)NC(=O)CCc1ccc(O)cc1 (configuration not stated),inhibition,[1],20%
CC(C)C(CN1CCC(C)(c2cccc(O)c2)C(C)C1)NC(=O)CCc1ccc(O)c(O)c1 (configuration not stated),inhibition,[1],31%
CC1CN(CC(c2ccccc2)N(C)C(=O)CCc2ccc(O)cc2)CCC1(C)c1cccc(O)c1 (configuration not stated),inhibition,[1],7%
CC(CN1CCC(C)(c2cccc(O)c2)C(C)C1)N(C)C(=O)CCc1ccc(O)cc1 (configuration not stated),inhibition,[1],1%
CC1CN(CCN(C)C(=O)CCc2ccc(O)cc2)CCC1(C)c1cccc(O)c1 (configuration not stated),inhibition,[1],0%
CC1CN(C[C@H](Cc2ccccc2)NC(=O)CCc2ccc(O)cc2)CCC1(C)c1cccc(O)c1 (some centres not stated),Ki,Mu-type opioid receptor [2],9.6 nM
